This note sets out measurements from ChEMBL document CHEMBL1212743, “Absorption, pharmacokinetics, and safety of triclosan after dermal administration” (Antimicrob Agents Chemother, 2010).

Holding throughout (format): ADME, organism-based
Series [1] is described as follows: Excretion in percutaneously dosed healthy human urine at 1166 mg up to 48 hrs. Conditions: topical or ocular, read-out: Activity.
A short description of series [2]: Absorption in percutaneously dosed healthy human at 1166 mg. The note with it: in vivo, topical or ocular, read-out: Activity.
Another series deals with Homo sapiens. Nature of the series: Time to reach maximum urine excretion rate in percutaneously dosed healthy human at 1166 mg. Conditions: in vivo, topical_or_ocular.
The nature of series [3]: Apparent half-life of the terminal disposition phase half life in percutaneously dosed healthy human at 1166 mg. Conditions: in vivo, topical or ocular, read-out: t1/2 lambda z (converted).

Each structure is given as a SMILES string.

As for `Oc1cc(Cl)ccc1Oc1ccc(Cl)cc1Cl` [TRICLOSAN], the dose excreted at 48 h in series [1] amounted to 4.9%. Further, the Fa in series [2] stood at 5.9%. In the series with Homo sapiens, this compound displayed a Time of 11 h. Moreover, the half-life in series [3] is 10.8 h.
